Tests used:
MPO [1] = biological target: T1, MPO (Homo sapiens, UniProt P05164); test: Fluorescence turn-on of probe with purified MPO; type: biochemical; settings: 1 µM probe, 15 µM MPO, 150 µM H2O2, PBS (pH 7.4)
T1 sequence (P05164 49-745): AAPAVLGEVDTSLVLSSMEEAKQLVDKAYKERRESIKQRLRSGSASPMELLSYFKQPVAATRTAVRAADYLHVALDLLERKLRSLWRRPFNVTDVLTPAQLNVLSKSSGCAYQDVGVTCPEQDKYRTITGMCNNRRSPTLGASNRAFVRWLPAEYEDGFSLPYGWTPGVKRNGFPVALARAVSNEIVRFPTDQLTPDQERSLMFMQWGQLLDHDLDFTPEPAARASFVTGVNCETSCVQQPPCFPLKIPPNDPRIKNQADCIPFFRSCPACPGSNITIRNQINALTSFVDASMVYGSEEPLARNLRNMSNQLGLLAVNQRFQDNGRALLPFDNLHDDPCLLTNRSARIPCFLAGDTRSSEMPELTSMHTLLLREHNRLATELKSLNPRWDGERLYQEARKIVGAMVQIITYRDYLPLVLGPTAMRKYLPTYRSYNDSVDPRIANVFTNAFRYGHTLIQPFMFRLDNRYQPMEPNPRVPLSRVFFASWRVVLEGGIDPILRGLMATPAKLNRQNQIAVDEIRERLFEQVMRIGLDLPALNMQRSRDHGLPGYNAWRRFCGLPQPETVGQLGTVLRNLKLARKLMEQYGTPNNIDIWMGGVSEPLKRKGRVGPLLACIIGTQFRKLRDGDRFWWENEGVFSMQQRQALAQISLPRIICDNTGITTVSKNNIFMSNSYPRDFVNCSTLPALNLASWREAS
Experimental: (§1) Furthermore, we confirmed the chemical stability of probe 1 in cell culture media with or without serum for 4 and 24 h at 37 °C (Supplementary Fig. 7).
(§2) To a stirring solution of the corresponding N-Boc aldehyde B1 or B2 (7.6 mmol) and AcOH (1.2 mmol) in dry CH3OH (30 mL) was added 4-amino-1H-imidazole-5-carboxamide (6.0 mmol). The reaction was stirred for 2.5 h under N2 before NaBH3CN (7.2 mmol) was added in one portion and the mixture was left stirring overnight under N 2. A solution of sat. aq. NaHCO3 was added and most of the CH3OH was removed in vacuo. The residue was extracted with EtOAc and the combined organic layers were dried over MgSO 4, filtered, and the crude product purified by flash silica gel column chromatog raphy (0-10% CH3OH/CH2Cl2) to give C1 or C2. […]
(§3) The solutions were incubated for 5 min and the fluorescence emission spectra was measured between 480 and 600 nm. […]
(§4) Probe 1 was diluted to 400 µM and incubated in CH3CN, RPMI 1640, or RPMI 1640 supplemented with 2% FCS for 0, 4, and 24 h at 37 °C under constant shaking. […] The supernatant was filtered and analyzed by HPLC. […]
(§5) Differentiation was assessed morphologically by fluorescent nuclear staining (Hoechst 33342) and by evaluation of CD11b expre ssion with a rat primary antibody directed against human CD11b (M1/70, Invitrogen, 1:400, 30 min, 4 °C) using a BD FACSVerse Flow Cytometer. Data were analyzed with FlowJo. […]

[2] = Fluorescence excitation and emission spectra in solvents of different polarity; type: physicochemical; settings: for fluorescence increase in CH2Cl2 compared to PBS buffer (pH 7.4): approximate values
Experimental: To validate the solvatochromic properties of the probes, we recorded the fluorescence excitation and emission spectra of probes 1-6 in a 10 μM solution in CH2Cl2, CH3CN, CH3OH, and PBS buffer (pH 7.4, Table 1, Supplementary Table 1). These solvents have different polarities thereby emulating the hydrophobic enzyme-probe binding site environment (Supplementary Figs. 1-6). […] This effect was less prominent for 3 and 4 with a ~ 110-fold fluorescence increase, and for 5 and 6 with a ~ 30-fold fluorescence increase.
Probes 1-6 were prepared into 10 mM DMSO stock solutions and diluted to 10 μM with CH2Cl2, CH3CN, CH3OH, or PBS (pH 7.4). The fluorescence excitation spectra of each probe was measured between 300 and 480 nm for probes 1-4 and 300 and 500 nm for probes 5 and 6. The fluorescence emission spectra of each probe was measured between 480 and 700 nm for probes 1-4 and 500 and 700 nm for probes 5 and 6.

[3] = test system: MPO activity in human polymorphonuclear neutrophils (hPMN); test: Wash-free live-cell imaging of probes in hPMN during NETosis; type: cell-based; settings: 100 nM PMA, probe near IC50, 3 h, 37 °C; for MFI (mean fluorescence intensity): whole images
Experimental: With probes 1-6 in hand, we opted for a cell-based screening strategy to find suitable probes to image MPO activity during NETosis (Fig. 1A). In this approach, we stimulated freshly isolated human polymorphonuclear neutrophils (hPMN) with PMA and incubated with probes 1-6 at concentrations near their IC50 for 3 h. […] Subsequently, probes that show a significant ‘’turn-on” fluorescence compared to unstimulated cells are selected and tested for colocalization with an anti-MPO antibody in fixed cells. With this cell-based strategy, potential suitable probes to image MPO activity during NETosis can be immediately identified. Therefore, live hPMN were incubated with PMA and probes 1-6 and imaged directly (Fig. 1B).
Colocalization analysis was performed with JaCoP[34].

[4] = Chemical stability in cell culture media (HPLC); type: physicochemical; settings: cell culture media with or without serum, 4 and 24 h, 37 °C
Experimental: as §1, §2, §3, §4, §5

MPO [5] = biological target: T1, MPO; test: Amplex Red assay of MPO peroxidase activity; type: biochemical; settings: for IC50: Amplex Red assay, t = 30 min, 100 pM MPO, 1 µM H2O2
Excerpt: Having obtained the fluorescent properties of probes 1-6, we determined their functional properties by the Amplex Red assay as previously reported (Table 1, Supplementary Figs. 1-6)[27]. In this assay, 10-acetyl-3,7-dihydroxyphenoxazine is oxidized by MPO in the presence of H2O2 to resorufin, a highly fluorescent compound with an fluorescence excitation and emission maxima of 571 and 585 nm, respectively. Fortunately, probes 1, 2, 4, 5, and 6 retained similar IC50 values as those previously reported for 2-thioxanthine-based inhibitors despite the presence of the environment-sensitive fluorophores[27],[33]. However, we noticed a slight negative trend in the IC50 of probes containing the shorter ethyl spacer. This effect was more evident in probe 3, which experienced a ~ 4-fold reduction in IC50 values compared to its counterpart probe 4.
MPO peroxidase activity and the determination of inhibitor potencies were performed as described before with minimal changes. In brief, to 78 uL of assay mixture (PBS (pH 7.4), 1 µM H2O2, and 20 µM Amplex Red) were added 2 μL of probe 1-6 in concentrations from 0 to 40 µM in DMSO (final DMSO concentration of 2%) and mixed for 1 min. The reactions were initiated by the addition of 20 μL 500 pM MPO (final MPO concentration of 100 pM) followed by mixing for 5 s. Fluorescent changes (RFU/s) were monitored at room temperature every 20 s for 30 min with excitation and emission filters set at 530 and 580 nm, respectively. Initial rates (V0) were determined using linear regression analysis of the first 600 s corresponding to the linear range of the DMSO control. To calculate IC50 values, V0 and probe concentration were fit to a dose-response curve with a standard Hill slope of -1 using nonlinear regression analysis. The kobs, kinact, and KI values for probe 1 were calculated exactly as described before.

[6] = test system: MPO activity in human polymorphonuclear neutrophils (hPMN); test: Wash-free live-cell imaging of probes in hPMN during NETosis; type: cell-based; settings: 4 µM ionomycin, 1 µM probe, 3 h
[7] = from kobs vs probe concentration

Row | SMILES | fluorescence increase with MPO compared to probe alone, ABAH pre-treated MPO or BSA (MPO [1]) | fluorescence increase in CH2Cl2 compared to PBS buffer (pH 7.4) ([2]; 10 μM) | λem ([2]; CH2Cl2, 10 μM) | λex ([2]; CH2Cl2, 10 μM) | λem ([2]; PBS (pH 7.4), 10 μM) | λex ([2]; PBS (pH 7.4), 10 μM) | S/B (signal-to-background ratio) [3] | MFI (mean fluorescence intensity) [3] | chemical stability [4] | kinact/KI (MPO [5]) | IC50 (MPO [5]) | Ki (MPO [5]; [7]) | kinact (MPO [5]; [7]) | probe signal in ionomycin-stimulated cells [6] | fluorescence increase at λem in CH2Cl2 compared to PBS (pH 7.4) ([2]; supplementary figure legends)
1 | CN(C)c1ccc2c3c(cccc13)C(=O)N(CCn1c(=S)[nH]c(=O)c3[nH]cnc31)C2=O [Probe 1] | ~ 13 fold | ~ 300 fold | 510 nm | 415 nm | 560 nm | 457 nm | 16.7 | 6.9 gray values | chemically stable | 4263 M^−^1s^−^1 | 0.854 ± 0.044 µM | 1.08 ± 0.073 µM | 0.0046 ± 0.0001 s^−^1 | not significantly different from unstimulated background levels | 
2 | CN(C)S(=O)(=O)c1ccc(NCCn2c(=S)[nH]c(=O)c3[nH]cnc32)c2nonc12 [Probe 3] |  | ~ 110 fold | 532 nm | 417 nm | 600 nm | 435 nm | 8.9 | 1.5 gray values |  |  | 4.57 ± 1.83 µM |  |  |  | 
3 | CN(C)c1ccc2c3c(cccc13)C(=O)N(CCOCCn1c(=S)[nH]c(=O)c3[nH]cnc31)C2=O [Probe 2] |  | ~ 300 fold | 512 nm | 415 nm | 560 nm | 446 nm | 11.7 | 3.0 gray values |  |  | 0.479 ± 0.017 µM |  |  |  | 
4 | CN(C)S(=O)(=O)c1ccc(NCCOCCn2c(=S)[nH]c(=O)c3[nH]cnc32)c2nonc12 [Probe 4] |  | ~ 110 fold | 535 nm | 420 nm | 600 nm | 435 nm | 7.3 | 1.8 gray values |  |  | 1.09 ± 0.151 µM |  |  |  | 
5 | O=c1[nH]c(=S)n(CCNc2ccc([N+](=O)[O-])c3nonc23)c2nc[nH]c12 [Probe 5] |  | ~ 30 fold | 522 nm | 452 nm | 558 nm | 473 nm |  | < 0.1 gray values |  |  | 0.497 ± 0.086 µM |  |  |  | 40 x
6 | O=c1[nH]c(=S)n(CCOCCNc2ccc([N+](=O)[O-])c3nonc23)c2nc[nH]c12 [Probe 6] |  | ~ 30 fold | 517 nm | 452 nm | 558 nm | 488 nm |  | < 0.1 gray values |  |  | 0.388 ± 0.035 µM |  |  |  | 
